Measurements reported in patent publication US20190175728A1, “NUCLEIC ACID-ANTIGEN PEPTIDE CONJUGATE” (NAPAJEN PHARMA, INC., priority 2017, published 2019).
One block for each molecule: values may come before it. No end group written: not given here.

Experiments:
[1] = tested on: OVA257-264 presenting cells (CFSE^high spleen cells); experiment: In vivo CTL assay; parameters: species or system C57BL/6J mice; settings: target cells given day 7, counted after 24 hours
Method: SPG/dA40(S)-OVA257-264 (20, 100, 500 ng in the amount of OVA257-264) and CpG-dA40(S)/SPG (30 μg in the amount of CpG-dA) were intradermally administered to C57BL/6J mice.
On day 7 of administration, spleen cells were provided according to the following procedure. Spleen cells excised from normal C57BL/6J mice were treated with 10 μg/ml of OVA257-264 at 37° C. for 90 minutes. Thereafter, the spleen cells were washed three times with PBS, and the spleen cells were labeled with 5 μM carboxyfluorescein succinimidyl ester (CFSE); Invitrogen, Carlsbad, Calif.). Further, spleen cells not treated with OVA257-264 were similarly labeled with CFSE (0.5 μM). The labeled cells were washed three times with PBS. The spleen cells treated with OVA257-264 (CFSE^high) and the spleen cells not treated with OVA257-264 (CFSE^low) were mixed so that the number of the treated spleen cells was equal to the number of the untreated spleen cells. […] After that, the spleen cells were removed from the mice, and the CFSE-labeled cells were counted by flow cytometry.
OVA257-264 presenting cells were not observed when the dose of OVA257-264 was 100 ng/head or more. […] The difference in ability of inducing CTL reaction between SPG/dA40(S)-OVA257-264 and OVA257-264-click-dA40(S)/SPG was consistent with the result of Example 5 in which the antigen presenting ability was evaluated.

[2] = biological target: T1, murine endoplasmic reticulum aminopeptidase (Mus musculus, UniProt Q9EQH2); experiment: Cleavage of dA40(S)-peptide conjugate by endoplasmic reticulum aminopeptidase (polyacrylamide gel electrophoresis); type: biochemical; settings: conjugate 1.5 μM, aminopeptidase 0.5 μg/ml, 25 mM Tris buffer pH 8.0, 37° C., 18 hours
T1 construct: purchased R & D Systems 2500-ZN
T1 sequence (Q9EQH2 1-930): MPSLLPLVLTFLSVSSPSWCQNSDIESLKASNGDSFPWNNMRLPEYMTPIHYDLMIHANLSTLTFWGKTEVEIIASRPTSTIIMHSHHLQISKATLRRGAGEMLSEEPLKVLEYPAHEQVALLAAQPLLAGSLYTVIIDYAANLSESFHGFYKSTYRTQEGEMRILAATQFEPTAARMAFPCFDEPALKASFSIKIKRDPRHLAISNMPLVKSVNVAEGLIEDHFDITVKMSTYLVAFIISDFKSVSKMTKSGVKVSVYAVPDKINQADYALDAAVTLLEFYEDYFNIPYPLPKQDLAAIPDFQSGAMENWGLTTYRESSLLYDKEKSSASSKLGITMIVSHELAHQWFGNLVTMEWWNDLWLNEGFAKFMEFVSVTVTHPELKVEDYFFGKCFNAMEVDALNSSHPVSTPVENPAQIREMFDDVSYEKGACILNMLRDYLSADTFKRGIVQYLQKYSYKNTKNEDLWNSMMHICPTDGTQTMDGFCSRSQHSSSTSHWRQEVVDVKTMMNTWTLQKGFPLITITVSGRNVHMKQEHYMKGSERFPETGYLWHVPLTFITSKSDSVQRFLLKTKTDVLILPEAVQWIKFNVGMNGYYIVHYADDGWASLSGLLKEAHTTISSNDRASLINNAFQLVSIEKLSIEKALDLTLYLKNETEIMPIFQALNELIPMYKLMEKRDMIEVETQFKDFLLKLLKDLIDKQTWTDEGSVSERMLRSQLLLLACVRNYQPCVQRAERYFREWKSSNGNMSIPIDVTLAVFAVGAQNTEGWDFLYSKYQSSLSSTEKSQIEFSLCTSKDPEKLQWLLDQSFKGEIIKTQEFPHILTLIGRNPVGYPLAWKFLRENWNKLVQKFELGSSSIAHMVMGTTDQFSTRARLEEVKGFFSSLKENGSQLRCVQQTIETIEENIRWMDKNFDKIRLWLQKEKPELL
Method: Each of the dA40(S)-peptide conjugates (1.5 μM) and murine endoplasmic reticulum aminopeptidase (0.5 μg/ml) (R & D Systems catalog Number 2500-ZN) were added to a 25 mM Tris buffer (pH 8.0) and the mixture was incubated at 37° C. for 18 hours. After completion of the reaction, polyacrylamide gel electrophoresis was carried out to observe the state of release from the dA40(S)-peptide conjugate.
In FIG. 2, pep(C)-dA40(S) represents a dA40(S)-peptide conjugate obtained by using peptide 1, dA40(S)-(C)pep represents a dA40(S)-peptide conjugate obtained by using peptide 2, dA40(S)-(C)pep long represents a dA40(S)-peptide conjugate obtained by using peptide 3, and dA40(S)-(C)pep long miss (L→K) represents a dA40(S)-peptide conjugate obtained by using peptide 4. […] Aminopeptidase is one of the enzymes that trim antigen peptides to present the antigen peptides to MHC. Accordingly, it is important for antigen presentation using the dA40(S)-peptide conjugate that even in the case of the peptide in which polydeoxyadenine is bonded to the N-terminal cysteine, the C-terminal side is composed of the hydrophobic amino acid residue. This fact was confirmed.

[3] = tested on: macrophages recovered from the peritoneal cavity; experiment: Antigen presenting ability of dA40(S)-peptide conjugates, fluorescence microscopy after anti-OVA257-264/H-2Kb PE staining; type: cell-based, C57BL/6J mice; settings: conjugate 10 μM, 18 hours, 1.5×10^5 cells/well
Method: (§1) 3 ml of thioglycollate medium was administered to the peritoneal cavity of C57BL/6J mice 3 days later, macrophages were recovered from the peritoneal cavity. The resulting macrophages were seeded in 48 wells (1.5×10^5 cells/well), and further each of the dA40(S)-peptide conjugates was added to the wells at a concentration of 10 μM. […], the fixed cells were stained with Anti-Mouse OVA257-264 (SIINFEKL) peptide bound to H-2Kb PE, and the resulting cells were subjected to fluorescence microscopic observation.
In FIG. 3, pep(C)-dA40(S) represents a dA40(S)-peptide conjugate obtained by using peptide 1, dA40(S)-(C)pep represents a dA40(S)-peptide conjugate obtained by using peptide 2, dA40(S)-(C)pep long represents a dA40(S)-peptide conjugate obtained by using peptide 3, and dA40(S)-(C)pep long miss (L→K) represents a dA40(S)-peptide conjugate obtained by using peptide 4.

[4] = tested on: macrophages recovered from the peritoneal cavity; experiment: Antigen presenting ability of SPG/dA40(S)-OVA257-264, flow cytometry after anti-OVA257-264/H-2Kb PE staining; type: cell-based, C57BL/6J mice; settings: concentration of OVA257-264 5 μg/ml, 18 hours
Method: as §1, with “SPG/dA40(S)-OVA257-264, dA40(S)-OVA257-264, or OVA257-264-click-dA40(S)/SPG” for “each of the dA40(S)-peptide conjugates”, “added” for “added to the wells”, “OVA257-264 of 5 μg/ml.” for “10 μM.”, “analyzed by flow cytometry.” for “subjected to fluorescence microscopic observation.”

[5] = biological target: T2, dA40(S)-peptide conjugate obtained by using peptide 2
T2 chain: CSIINFEKL

[6] = biological target: T3, dA40(S)-peptide conjugate obtained by using peptide 1
T3 chain: SIINFEKLC

[7] = biological target: T4, dA40(S)-peptide conjugate obtained by using peptide 3
T4 chain: CQLESIINFEKL

Molecule: SPG/dA40(S)-OVA257-264: complex of dA40(S)-OVA257-264 and schizophyllan (SPG) (SIINFEKL; also: dA40(S) conjugate, site not given here, complex with schizophyllan (SPG); UniProt P01012 258-265, looked up, fragment)
decrease in OVA257-264 presenting cells (CFSE^high spleen cells) ([1]; intradermal, 20, 100, 500 ng OVA257-264, together with CpG-dA40(S)/SPG 30 μg): observed depending on the dose of OVA257-264 | dose of OVA257-264 at which OVA257-264 presenting cells were not observed ([1]; intradermal, together with CpG-dA40(S)/SPG 30 μg): ≥ 100 ng/head

state of release from the dA40(S)-peptide conjugate after enzyme treatment [2]: not recognized by the enzyme
Molecule: dA40(S)-(C)pep long miss (L→K): dA40(S) disulfide-bonded via LC-SPDP linker to N-terminal cysteine of peptide 4, CSIINFEKK (SEQ ID NO: 4) (cyclised or stapled)
fluorescence of OVA257-264 (SIINFEKL) bound to H-2Kb (antigen presentation) [3]: antigen presentation hardly occurred

Molecule: dA40(S)-OVA257-264: conjugate of dA40(S) and ovalbumin antigen peptide OVA257-264 (SIINFEKL), prepared in the manner described in Example 1 (also: dA40(S) conjugate, site not given here; UniProt P01012 258-265, looked up, fragment)
antigen (OVA257-264) presentation level [4]: the same as that of SPG/dA40(S)-OVA257-264

Molecule: pep(C)-dA40(S): dA40(S) disulfide-bonded via LC-SPDP linker to C-terminal cysteine of peptide 1, SIINFEKLC (SEQ ID NO: 1) (cyclised or stapled)
state of release from the dA40(S)-peptide conjugate after enzyme treatment [2]: no change was observed in the electrophoretic distance | fluorescence of OVA257-264 (SIINFEKL) bound to H-2Kb (antigen presentation) [3]: Very weak fluorescence

B1: murine endoplasmic reticulum aminopeptidase (R & D Systems catalog Number 2500-ZN) (protein)
chain: DIESLKASNGDSFPWNNMRLPEYMTPIHYDLMIHANLSTLTFWGKTEVEIIASRPTSTIIMHSHHLQISKATLRRGAGEMLSEEPLKVLEYPAHEQVALLAAQPLLAGSLYTVIIDYAANLSESFHGFYKSTYRTQEGEMRILAATQFEPTAARMAFPCFDEPALKASFSIKIKRDPRHLAISNMPLVKSVNVAEGLIEDHFDITVKMSTYLVAFIISDFKSVSKMTKSGVKVSVYAVPDKINQADYALDAAVTLLEFYEDYFNIPYPLPKQDLAAIPDFQSGAMENWGLTTYRESSLLYDKEKSSASSKLGITMIVSHELAHQWFGNLVTMEWWNDLWLNEGFAKFMEFVSVTVTHPELKVEDYFFGKCFNAMEVDALNSSHPVSTPVENPAQIREMFDDVSYEKGACILNMLRDYLSADTFKRGIVQYLQKYSYKNTKNEDLWNSMMHICPTDGTQTMDGFCSRSQHSSSTSHWRQEVVDVKTMMNTWTLQKGFPLITITVSGRNVHMKQEHYMKGSERFPETGYLWHVPLTFITSKSDSVQRFLLKTKTDVLILPEAVQWIKFNVGMNGYYIVHYADDGWASLSGLLKEAHTTISSNDRASLINNAFQLVSIEKLSIEKALDLTLYLKNETEIMPIFQALNELIPMYKLMEKRDMIEVETQFKDFLLKLLKDLIDKQTWTDEGSVSERMLRSQLLLLACVRNYQPCVQRAERYFREWKSSNGNMSIPIDVTLAVFAVGAQNTEGWDFLYSKYQSSLSSTEKSQIEFSLCTSKDPEKLQWLLDQSFKGEIIKTQEFPHILTLIGRNPVGYPLAWKFLRENWNKLVQKFELGSSSIAHMVMGTTDQFSTRARLEEVKGFFSSLKENGSQLRCVQQTIETIEENIRWMDKNFDKIRLWLQKEKPELL
release of dA40(S) from the conjugate, polyacrylamide gel electrophoresis after enzyme treatment [5]: a band of dA40(S) was slightly observed after the enzyme treatment | release of dA40(S) from the conjugate, polyacrylamide gel electrophoresis after enzyme treatment [6]: no change was observed in the electrophoretic distance even when subjected to enzyme treatment | release of dA40(S) from the conjugate, polyacrylamide gel electrophoresis after enzyme treatment [7]: the peptide was almost completely released and a band of dA40(S) was observed
